The values below come from US8598232B2, “Process for the preparation of non-genotoxic diacetylrhein (diacerein) and formulations comprising non-genotoxic diacetylrhein” (Evultis SA, priority 2008, dated 2013).

The data set is described as follows: solubility in water of the potassium salt of Diacerein. It counts as physicochemical. Conditions: in water at neutral pH (pH=7). The procedure: Type A Process: The first step of the process (a.) is to salify the raw Diacerein to obtain a salt of Diacerein which is soluble in water. The water soluble salt of Diacerein is preferably an inorganic salt of Diacerein, more preferably a salt of Diacerein with an alkali metal. In a preferred embodiment, the salt of Diacerein is a potassium salt of Diacerein or a sodium salt of Diacerein. The solubility of potassium salt of Diacerein is around 1 g/50 ml of water at neutral pH (pH=7).

Where a name gives a salt, the structure may show the parent alone.

For the molecule `CC(=O)Oc1cccc2c1C(=O)c1c(OC(C)=O)cc(C(=O)O)cc1C2=O` [potassium salt of Diacerein, 1,8-diacetoxy-3-carboxyanthraquinone], the solubility result is reported as “around 1 g/50 ml”.
